The text below walks through data of patent US20230329237A1, “MUSA PLANTS, FIELDS […] PLANTS” (Taminco BV, priority 2020, published 2023).

One experiment relates to Cavendish banana plants. Kind of experiment: Field trial: growth and development of banana plants transplanted into metam sodium treated soil. Format: in vivo, Musa (Cavendish banana). The protocol:
The analyses described in this example were carried out in the Philippines in a field in which Musa trees (specifically bananas) were to be planted, in the spring (beginning in March). Final determinations were carried out in September of the same year.
(§1) Metam Sodium Application. Metam sodium 510 SL (equivalent to 42% w/w) was applied to soil at the following doses: 0 liters per hectare (L/ha), 750 L/ha, 1500 L/ha, 2250 L/ha, 3000 L/ha.
(§2) Prior to injection, soil was prepared using a rototiller to break the soil structure from 0 cm to 80 cm deep, allowing for the smooth and even injection application by an injection machine. The soil was then leveled and made uniform, and the metam sodium was applied at two depths: 30 cm and 60 cm, using injection methods. The temperature was at a minimum of 10 °C and soil humidity was between 50 and 60% holding capacity, allowing the applied product to transform from metam sodium (liquid) to MITC (gas).
(§3) The application was made using an injection machine wherein the machine lowered shanks and began moving forward such that the shanks lowered to a depth of 60 cm and injectors applied the metam sodium into the soil. When the injection at 60 cm was complete, the process was repeated for the entire field at 30 cm. The treated soil in the field was then sealed using a packer roller (which was part of the injection machinery, located at the back end of the machine), after each application.
Plant Selection and Transplantation. Cavendish banana plants were used for this investigation. In order to avoid plants already contaminated by other soil, all plants were produced in vitro using art-recognized methods. Plants were transplanted into the field 14 days after the final soil reading was taken (21 days after treatment).
Data Gathering. Data were gathered at monthly intervals beginning three months after banana plants were transplanted. A total of three data collection sessions were conducted. Data including the number of leaves, plant height, and girth size were collected.

The next experiment has as its system parasitic nematodes. Kind of experiment: Nematode analysis of soil samples from the treated field. The format is in vivo. Conditions: any tested soil samples. As for the experimental part:
(§4) Soil Analysis. Soil samples were obtained at 20, 40, and 60 cm before application and every 24 hours beginning 48 hours after application, for seven days.
Plant Pathology Analysis. Soil samples used for Panama Disease and nematode analyses were aseptically isolated in culture medium and incubated for seven days at room temperature. Organisms were identified as follows: 20 grams of composite soil sample was diluted with 40 mL distilled water (dH2O); 1 drop of Tween 20 detergent was added, and the sample mixed. A 1 mL aliquot was taken from the solution and diluted with 9 mL dH2O; three further serial dilutions were made. From each dilution, 100 μL were spread on solid Komada growth medium (Sun et al., Phytopathology 68: 1672-1673, 1978). Growth could be seen 7 days after inoculation.

For experiment [1], the system named is F. oxysporum f. sp. cubense. Kind of experiment: Panama disease analysis of soil samples from the treated field (Komada medium). Format: in vivo, Fusarium oxysporum f. sp. cubense Tropical Race 4. To be noted: any of the treated groups (750-3000 L/ha); any day post application. The protocol: as §1, §2, §3, §4
Plant Pathology Analysis. […]

For the next experiment, the system named is Foc TR4 chlamydospores. Kind of experiment: In vitro efficacy of metam sodium on Foc TR4 chlamydospores (colonies on PDA plates). The format is cell-based, Fusarium oxysporum f. sp. cubense Tropical Race 4. The protocol:
Foc TR4 chlamydospores were extracted from infested soil and incubated with a dilution series of metam sodium for 5 min and 60 min at room temperature. Thereafter, the samples were diluted 10×to get reduction of the treatment and sufficient dilution of chlamydospores to avoid lack of resolution when grown on plate. Aliquots of 100 μl were plated on PDA plates in duplicate and incubated for 3 days at 25° C. Plates were photographed and scored.

[2] abbreviates: 750 L/ha, six months after treatment.
Setting [3] is: 1500 L/ha, six months after treatment.
Setting [4] is: 2250 L/ha, six months after treatment.
[5] abbreviates: 3000 L/ha, six months after treatment.

As to `CNC(=S)[S-].[Na+]` [metam sodium, sodium N-methyldithiocarbamate], the entries for the “average girth size of banana plant, increase” value with Cavendish banana plants (750 L/ha) and in the experiment on Cavendish banana plants (1500-3000 L/ha) were roughly 1 cm and 4-6 cm, respectively. Moreover, the “average height of banana plant, increase” value in the experiment on Cavendish banana plants (750 L/ha) is reported as roughly 5 cm; with Cavendish banana plants (1500-3000 L/ha), 20-23 cm. In addition, the “percent of plants at either shooting or bagging stage” value in the experiment with Cavendish banana plants (setting [2]) amounted to 11%; with Cavendish banana plants (setting [3]), 28%; with Cavendish banana plants (setting [4]), 27%; in the experiment on Cavendish banana plants (setting [5]), 35%. Further, the “percent of plants at shooting stage” value with Cavendish banana plants (setting [2]) came out at 9%; in the experiment on Cavendish banana plants (setting [3]), 10%; in the experiment with Cavendish banana plants (setting [4]) it was 17%; with Cavendish banana plants (setting [5]) it was 22%. In addition, the “plants reaching bagging stage” value with Cavendish banana plants (setting [2]) was “did not have a meaningful effect”. Also, the “percent of plants at bagging stage” value with Cavendish banana plants (1500 to 3000 L/ha, six months after treatment) is recorded as 11-19%. For the same compound, in the experiment with Cavendish banana plants (regardless of dose applied (750-3000 L/ha), vs 0 L/ha), the “average number of leaves, increase” value was “roughly 1.5 fold”. In the experiment on parasitic nematodes, the “parasitic nematodes in soil” value is reported as “no parasitic nematodes were noted”. Moreover, the “Foc TR4 in soil (soil contamination)” value in experiment [1] is listed as “No Foc TR4 was detected”. Moreover, the “reducing the number of surviving chlamydospores, measured as growing colonies” value in the experiment with Foc TR4 chlamydospores (100× dilution, prolonged incubation (60 vs 5 minutes)) is given as “more effective”. The “efficacy on Foc TR4 colony growth on plates” value in the experiment with Foc TR4 chlamydospores (dilution of 10×, incubation time 5 minutes) was “effective”; in the experiment with Foc TR4 chlamydospores (dilution of 100×, 5 and 60 minutes), “less effective”. Also, in the experiment with Foc TR4 chlamydospores (first test, dilutions from 1000 up to 10×10^6-fold, 60 min), the “reduction in viability of Foc TR4 chlamydospores” value was “No significant reduction in viability”. In the experiment with Foc TR4 chlamydospores (overall, dependent on high concentrations), the “efficacy against Foc TR4 chlamydospores under in vitro conditions” value is reported as “effective against Foc TR4 chlamydospores”. For the same compound, the “efficacy on surviving chlamydospores” value in the experiment with Foc TR4 chlamydospores (second test, 10× and 100× dilutions) was “(partially) effective”. Also, the “number of chlamydospores that survived” value in the experiment on Foc TR4 chlamydospores (second test, dilutions of 1000× and more) is given as “did not affect the number of chlamydospores that survived”.
